Measured values taken from PubChem BioAssay AID1963984 (Molecular Pharmacology Branch, DTP, NCI, 2024).
pIC50: −log10 of the molar value. Several values for one entry are separate records, joined by “and”; a condition that tells them apart may be missing. Equal entries are not always repeated.

Test system: 233499-124-R-J3-PDC spheroids with HUVEC/MSC, viability
Assay: Anticancer human tumor 233499-124-R-J3-PDC patient-derived colon adenocarcinoma cell line growth inhibition [PI3K]
Conditions: for viability, T/C: stronger effect = lower value
Excerpt: Combinatorial screen of targeted agents with the PI3K inhibitors inavolisib, alpelisib, duvelisib, and copanlisib in multi-cell type tumor spheroids
A high-throughput screen of multi-cell type tumor spheroids was designed to identify active combinations of targeted small molecules and PI3K pathway inhibitors. Complex spheroids include a stromal component modeled by human endothelial cells (HUVEC) and fibroblasts modeled by human mesenchymal stem cells (MSCs). The concentration ranges selected for each drug and investigational agent were based upon clinically achievable concentrations if the clinical Cmax of the agent was known.
Compounds. The drugs and investigational agents: inavolisib (NSC800729), alpelisib (NSC765974), duvelisib (NSC772469), copanlisib (NSC816437), ipatasertib (NSC767898), afuresertib (NSC778305), talazoparib (NSC767125), sapanisertib (NSC764658), selumetinib (NSC741078), tovorafenib (DAY101, NSC766906), vemurafenib (NSC761431), ravoxertinib (NSC781343), sotorasib (NSC818433), MRTX1133 (NSC 836407), abemaciclib (NSC 768073), palbociclib (NSC758247), venetoclax (NSC 766270), SY5609 (NSC837396), enzalutamide (NSC755605), and darolutamide (NSC825331), were obtained from the National Cancer Institute (NCI) Developmental Therapeutics Program Chemical Repository. The FDA-approved anticancer drug set is available from the NCI Developmental Therapeutics Program. […] The stock solutions were prepared in dimethyl sulfoxide (DMSO, Sigma-Aldrich, St. Louis, MO, cat. D2650) at 800-fold the tested concentration and stored at -70 degrees C prior to their use. All drugs and investigational agents were tested over a range starting from a high concentration at or near the clinical Cmax and decreasing in half-log increments. If the clinical Cmax for an agent had not been determined, the highest concentration tested was 10 microM.
Cell Culture. All cells were maintained in an incubator at 37 degrees C and 5% CO2 with 95% humidity. The PDC lines were cultured according to standard operating procedures established by the NCI PDMR (https://pdmr.cancer.gov/sops/default.htm). All PDCs were thawed and cultured in Matrigel-coated flasks prepared with a working solution of 1X Ham's F-12 nutrient mix, without supplementation (Invitrogen, Waltham, MA, cat. 11765054), 100 U/mL penicillin-streptomycin (Invitrogen, cat. 15140122), and 2.5% Matrigel (Corning Inc., Corning, NY, cat. 354248) for the first three passages. The 354836-022-R-J1-PDC, 475296-252-R-J1-PDC, and 997726-040-R-J2-PDC lines were cultured in 6A media, which includes advanced DMEM/F-12 (Thermo Fisher Scientific, cat. 12634028), 10 mM HEPES (Thermo Fisher Scientific, cat. 15630080), 1X GlutaMAX supplement (Thermo Fisher Scientific, cat. 35050061), 0.1 mg/mL primocin (InvivoGen, San Diego, CA, cat. ant-pm-2), 10% defined fetal bovine serum, heat inactivated (HyClone Laboratories Inc., Logan, UT, cat. SH30070.03HI), 50% L-WRN conditioned media (ATCC, cat. CRL-3276), 1.25 mM N-Acetyl-L-cysteine (Sigma-Aldrich, cat. A9165), 10 mM nicotinamide (Sigma-Aldrich, cat. N0636), 1X B-27 supplement (Thermo Fisher Scientific, cat. 17504044), 1X N-2 supplement (Thermo Fisher Scientific, cat. 17502048), and 10 microM Y-27632 dihydrochloride (Tocris Bioscience, Bristol, United Kingdom, cat. 1254). The 624824-186-R-J2-PDC line was cultured in 6C/Colon 1B media, which includes all 6A media components plus 50 ng/mL human EGF recombinant protein (Thermo Fisher Scientific, cat. PHG0311). […]

[1] = compound alone, run of 05/09/2023
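Further: spheroids exposed to agents for seven days before readout.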
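Wherever viability, T/C is given: percent viability relative to DMSO vehicle control taken as 100%.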

In the case of `C#Cc1c(F)ccc2cc(O)cc(-c3ncc4c(N5CC6CCC(C5)N6)nc(OCC56CCCN5CC(F)C6)nc4c3F)c12` (configuration not stated), the viability, T/C (compound 0.0316 µM) was 96% [middle of 4 runs], the viability, T/C (compound 0.1 µM) was 102% [middle of 4 runs] and the viability, T/C (compound 0.316 µM) was 95.6% [middle of 4 runs]. For the same compound, the viability, T/C (compound 1 µM) was 99.3% [middle of 4 runs], the viability, T/C (compound 3.16 µM) was 87.5% [middle of 4 runs] and the viability, T/C (compound 10 µM) was 84.1% [middle of 4 runs]. The pIC50 (curve of compound) was less than 5.00.
With `C=CC(=O)N1CCN(c2nc(=O)n(-c3c(C)ccnc3C(C)C)c3nc(-c4c(O)cccc4F)c(F)cc23)C(C)C1` (configuration not stated) the viability, T/C (compound 0.0316 µM) was 91.7% [middle of 4 runs], the viability, T/C (compound 0.1 µM) was 99.3% [middle of 4 runs] and the viability, T/C (compound 1 µM) was 113% [middle of 4 runs]. The viability, T/C (compound 3.16 µM) was 99.9% [middle of 4 runs] and the pIC50 (curve of compound) was less than 5.00.
With `CC(=O)c1c(C)c2cnc(Nc3ccc(N4CCNCC4)cn3)nc2n(C2CCCC2)c1=O` the viability, T/C (compound 0.000316 µM) was 98.4% [middle of 4 runs], the viability, T/C (compound 0.001 µM) was 98.5% [middle of 4 runs] and the viability, T/C (compound 0.00316 µM) was 85.1% [middle of 4 runs]. For the same compound, the viability, T/C (compound 0.01 µM) was 88.2% [middle of 4 runs], the viability, T/C (compound 0.1 µM) was 91.2% [middle of 4 runs] and the pIC50 (curve of compound) was less than 7.00.
With `CC(C)NCC(C(=O)N1CCN(c2ncnc3c2C(C)CC3O)CC1)c1ccc(Cl)cc1` (configuration not stated) the viability, T/C (compound 0.0316 µM) was 97.7% [middle of 4 runs], the viability, T/C (compound 0.316 µM) was 94% [middle of 4 runs] and the viability, T/C (compound 1 µM) was 102% [middle of 4 runs]. For the same compound, the viability, T/C (compound 3.16 µM) was 94.5% [middle of 4 runs] and the pIC50 (curve of compound) was less than 5.00.
In the case of `CC(C)n1nc(-c2ccc3oc(N)nc3c2)c2c(N)ncnc21`, the viability, T/C (compound 0.001 µM) was 94.8% [middle of 4 runs], the viability, T/C (compound 0.00316 µM) was 89.4% [middle of 4 runs] and the viability, T/C (compound 0.01 µM) was 85.9% [middle of 4 runs]. For the same compound, the viability, T/C (compound 0.0316 µM) was 82.9% [middle of 4 runs], the viability, T/C (compound 0.1 µM) was 58.7% [middle of 4 runs] and the pIC50 (curve of compound) was less than 7.00.
In the case of `CC(Cn1ccc(-c2ccc(C#N)c(Cl)c2)n1)NC(=O)c1cc(C(C)O)[nH]n1` (configuration not stated), the viability, T/C (compound 0.316 µM) was 97.2% [middle of 4 runs], the viability, T/C (compound 1 µM) was 98.2% [middle of 4 runs] and the viability, T/C (compound 3.16 µM) was 92.5% [middle of 4 runs]. The pIC50 (curve of compound) was less than 5.00.
`CC(Nc1ccc2c(c1)OCCn1cc(N3C(=O)OCC3C(F)F)nc1-2)C(N)=O` (configuration not stated) was tested, and the viability, T/C (compound 0.1 µM) was 80.2% [middle of 8 runs], the viability, T/C (compound 1 µM) was 71.6% [middle of 8 runs] and the pIC50 (compound alone, run of 05/08/2023) was less than 6.00.
With `CC(Nc1ncnc2nc[nH]c12)c1cc2cccc(Cl)c2c(=O)n1-c1ccccc1` (configuration not stated) the viability, T/C (compound 0.0316 µM) was 93.9% [middle of 8 runs], the viability, T/C (compound 0.1 µM) was 97.2% [middle of 8 runs] and the viability, T/C (compound 0.316 µM) was 95.8% [middle of 8 runs]. For the same compound, the viability, T/C (compound 1 µM) was 103% [middle of 8 runs], the viability, T/C (compound 3.16 µM) was 100% [middle of 8 runs] and the viability, T/C (compound 10 µM) was 89.7% [middle of 8 runs]. The pIC50 [1] was less than 5.00.
`CC1(C)CCC(CN2CCN(c3ccc(C(=O)NS(=O)(=O)c4ccc(NCC5CCOCC5)c([N+](=O)[O-])c4)c(Oc4cnc5[nH]ccc5c4)c3)CC2)=C(c2ccc(Cl)cc2)C1` was tested, and the viability, T/C (compound 0.0316 µM) was 96.5% [middle of 4 runs], the viability, T/C (compound 0.1 µM) was 104% [middle of 4 runs] and the viability, T/C (compound 3.16 µM) was 100% [middle of 4 runs].
With `CC1(C)CCC(Nc2ncc(C(F)(F)F)c(-c3c[nH]c4c(P(C)(C)=O)c(C#N)ccc34)n2)CN1` (configuration not stated) the viability, T/C (compound 0.0316 µM) was 66.7% [middle of 4 runs], the viability, T/C (compound 0.316 µM) was 46.9% [middle of 4 runs] and the viability, T/C (compound 1 µM) was 26.5% [middle of 4 runs]. For the same compound, the viability, T/C (compound 3.16 µM) was 29.1% [middle of 4 runs] and the viability, T/C (compound 10 µM) was 5.67% [middle of 4 runs].
`CCCS(=O)(=O)Nc1ccc(F)c(C(=O)c2c[nH]c3ncc(-c4ccc(Cl)cc4)cc23)c1F` was tested, and the viability, T/C (compound 0.1 µM) was 97.4% [middle of 4 runs], the viability, T/C (compound 0.316 µM) was 97.2% [middle of 4 runs] and the viability, T/C (compound 1 µM) was 100% [middle of 4 runs]. For the same compound, the viability, T/C (compound 10 µM) was 2.53% [middle of 4 runs] and the IC50 (curve of compound) was 5.22 µM [middle of 4 runs].
With `CCN1CCN(Cc2ccc(Nc3ncc(F)c(-c4cc(F)c5nc(C)n(C(C)C)c5c4)n3)nc2)CC1` the viability, T/C (compound 0.01 µM) was 88.5% [middle of 4 runs], the viability, T/C (compound 0.0316 µM) was 85.6% [middle of 4 runs] and the viability, T/C (compound 0.1 µM) was 93.8% [middle of 4 runs]. The viability, T/C (compound 0.316 µM) was 58.9% [middle of 4 runs] and the viability, T/C (compound 1 µM) was 38.2% [middle of 4 runs].
For `CNC(=O)c1ccc(N2C(=S)N(c3ccc(C#N)c(C(F)(F)F)c3)C(=O)C2(C)C)cc1F`, the viability, T/C (compound 0.0316 µM) was 93% [middle of 4 runs], the viability, T/C (compound 0.1 µM) was 94.5% [middle of 4 runs] and the viability, T/C (compound 0.316 µM) was 107% [middle of 4 runs]. For the same compound, the viability, T/C (compound 1 µM) was 93.1% [middle of 4 runs], the viability, T/C (compound 3.16 µM) was 92.1% [middle of 4 runs] and the pIC50 (curve of compound) was less than 5.00.
With `COc1c(OCCCN2CCOCC2)ccc2c3n(c(=NC(=O)c4cnc(N)nc4)nc12)CCN3` the viability, T/C (compound 0.01 µM) was 84.7% [middle of 8 runs], the viability, T/C (compound 0.0316 µM) was 93.6% [middle of 8 runs] and the viability, T/C (compound 0.316 µM) was 31.3% [middle of 8 runs]. For the same compound, the viability, T/C (compound 1 µM) was 11.8% [middle of 8 runs] and the IC50 [1] was 185 nM [middle of 8 runs].
In the case of `C[C@@H](NC(=O)c1ncnc(N)c1Cl)c1ncc(C(=O)Nc2cc(C(F)(F)F)c(Cl)cn2)s1`, the viability, T/C (compound 3.16 µM) was 110% [middle of 4 runs], the viability, T/C (compound 10 µM) was 110% [middle of 4 runs] and the pIC50 (curve of compound) was less than 5.00.
With `Cc1nc(NC(=O)N2CCCC2C(N)=O)sc1-c1ccnc(C(C)(C)C(F)(F)F)c1` (configuration not stated) the viability, T/C (compound 0.0316 µM) was 79.1% [middle of 7 runs] and the viability, T/C (compound 0.1 µM) was 88.6% [middle of 8 runs].
`Cn1cnc2c(F)c(Nc3ccc(Br)cc3Cl)c(C(=O)NOCCO)cc21` was tested, and the viability, T/C (compound 0.00949 µM) was 80.2% [middle of 4 runs], the viability, T/C (compound 0.0949 µM) was 64.8% [middle of 4 runs] and the viability, T/C (compound 0.3 µM) was 50.3% [middle of 4 runs]. The viability, T/C (compound 0.949 µM) was 49.8% [middle of 4 runs] and the viability, T/C (compound 3 µM) was 30.5% [middle of 4 runs].
With `Cn1ncc(Cl)c1-c1cc(C(=O)NC(CN)Cc2cccc(F)c2)sc1Cl` (configuration not stated) the viability, T/C (compound 0.0316 µM) was 85.8% [middle of 4 runs], the viability, T/C (compound 0.1 µM) was 102% (2×) and 85.4% and 93.9% and the viability, T/C (compound 0.316 µM) was 86.2% [middle of 4 runs]. The viability, T/C (compound 1 µM) was 89.6% [middle of 4 runs], the viability, T/C (compound 3.16 µM) was 63.6% [middle of 4 runs] and the viability, T/C (compound 10 µM) was 32.4% [middle of 4 runs]. For the same compound, the IC50 (curve of compound) was 4.62 µM [middle of 4 runs].
For `Cn1nccc1Nc1nccc(-c2ccn(C(CO)c3ccc(Cl)c(F)c3)c(=O)c2)n1` (configuration not stated), the viability, T/C (compound 0.1 µM) was 100% [middle of 4 runs], the viability, T/C (compound 10 µM) was 71.2% [middle of 4 runs] and the pIC50 (curve of compound) was less than 5.00.
For `Cn1ncnc1[C@H]1c2n[nH]c(=O)c3cc(F)cc(c23)N[C@@H]1c1ccc(F)cc1`, the viability, T/C (compound 0.000316 µM) was 100% [middle of 4 runs], the viability, T/C (compound 0.001 µM) was 99.6% [middle of 4 runs] and the viability, T/C (compound 0.0316 µM) was 103% [middle of 4 runs]. The viability, T/C (compound 0.1 µM) was 89% [middle of 4 runs] and the pIC50 (curve of compound) was less than 7.00.
